Data set [1] concerns E. coli ATCC 25922. The following applies: cited from earlier work. The source says:
(§1) Antimicrobial peptides (AMPs) are considered as promising alternatives to common antibiotics that threateningly lose their therapeutic potentials against multidrug-resistant pathogens (Fox, [2013]; Wang et al., [2015]). In contrast to approved therapeutic peptide hormones, antimicrobial peptides have to be administered at much higher doses, which may amplify general drawbacks of peptide therapeutics. For example, the diabetes peptide drugs exenatide and pramlintide are given at daily doses of 20 μg (Byetta®; ~0.5 μg/kg) and 120 μg (Symlin®; ~1.5 μg/kg; Heine et al., [2005]; Hay et al., [2015]) ... || Apidaecin analogs Api88 and Api137 are similarly active against Gram-negative bacteria with a tendency of higher activity of Api88 against K. pneumoniae (Czihal et al., [2012]; Berthold et al., [2013]). However, Api88 carries a C-terminal amide that is responsible for its very fast proteolytic cleavage in serum, the supernatant obtained after complete coagulation and centrifugation of blood. The in vitro serum stability assay, which is an important in vitro criterion to select therapeutic peptides for systemic applications, yielded very short half-life times of 5 min for Api88, which indicate ...

Data set [2] concerns the target 70S ribosomes. Conditions: fluorescence polarization assay; ref Krizsan et al., 2014; cited from earlier work. The source says: Antimicrobial peptides (AMPs) are considered as promising alternatives to common antibiotics that threateningly lose their therapeutic potentials against multidrug-resistant pathogens (Fox, [2013]; Wang et al., [2015]). In contrast to approved therapeutic peptide hormones, antimicrobial peptides have to be administered at much higher doses, which may amplify general drawbacks of peptide therapeutics. For example, the diabetes peptide drugs exenatide and pramlintide are given at daily doses of 20 μg (Byetta®; ~0.5 μg/kg) and 120 μg (Symlin®; ~1.5 μg/kg; Heine et al., [2005]; Hay et al., [2015]) ...
A general note: Fluorescence polarisation rises when a labelled molecule tumbles more slowly, as on binding a larger partner.

The conditions of data set [3]: mouse, in vivo, ip; cited from earlier work. The source says: Apidaecin analogs Api88 and Api137 are similarly active against Gram-negative bacteria with a tendency of higher activity of Api88 against K. pneumoniae (Czihal et al., [2012]; Berthold et al., [2013]). However, Api88 carries a C-terminal amide that is responsible for its very fast proteolytic cleavage in serum, the supernatant obtained after complete coagulation and centrifugation of blood. The in vitro serum stability assay, which is an important in vitro criterion to select therapeutic peptides for systemic applications, yielded very short half-life times of 5 min for Api88, which indicate ...

Data set [4] in a line: in vitro. The format is in vitro ADME, CD-1 mice. Conditions: female, CD-1, mouse, cerebrospinal or other body fluid. On the procedure: Peritoneal lavage (1.5–2 mL) were collected from three euthanized female CD-1 mice (14 weeks, 32–33 g) after injecting sterile PBS intraperitoneal (4 mL). Peptides were incubated with aliquots (95 μL) of fresh lavage (75 μg/mL, 37°C, 750 rpm). After 0, 30, and 60 min trichloroacetic acid (25 μL, 15% w/v) was added to the samples to precipitate proteins, incubated on ice (10 min), and centrifuged (5 min, 12.400 × g). Supernatants were neutralized with sodium hydroxide (1 mol/L) and analyzed by RP-HPLC using a Poroshell 120 SB-C18-column (2.1 mm internal diameter, 100 mm length, 2.7 μm particle size, 12 nm pore size, Agilent Technologies Inc., Santa Clara, CA, USA) at 60°C and an aqueous acetonitrile gradient containing trifluoroacetic acid (0.1%, v/v). Absorbance was recorded at a wavelength of 214 nm.

For data set [5] the following is noted: mouse, in vivo, ip, 5 mg/kg; cited from earlier work. The source says: The recovery rates obtained from the spiked samples, were used to calculate the total amounts of intact peptides in blood, liver, and kidneys after intraperitoneal administration (Figures 6B–E, Tables S10, S11). The relative recovery in the studied organs and blood was only around 1.5 ± 0.6–2.1 ± 0.7% of the injected peptide amounts. Considering the mean weight of 29 g per mouse in this study and the weights of blood, liver, two kidneys, and brain with 2.2, 1.5, 0.5, and 0.5 g, respectively (~16% of the total weight), around 12% of the injected peptide quantities were detected in the samples c ...

In data set [6] the test system is E. coli ATCC 25922. The following applies: same infection model; ref Schmidt et al., 2016; cited from earlier work.
Excerpt: as §1, with “[…] Api137 appeared more efficient in this septicemia model due to” for “For example,”, “better scores obtained” for “diabetes peptide drugs exenatide and pramlintide are given”, “at” for “at daily doses of 20 μg (Byetta®; ~0.5 μg/kg) and 120 μg (Symlin®; ~1.5 μg/kg; Heine et al., [2005]; Hay et al., [2015])”

For data set [7] the following is noted: cited from earlier work. The source says:
Proline-rich antimicrobial peptides (PrAMPs) represent promising alternative therapeutic options for the treatment of multidrug-resistant bacterial infections. PrAMPs are predominantly active against Gram-negative bacteria by inhibiting protein expression via at least two different modes of action, i.e., blocking the ribosomal exit tunnel of 70S ribosomes (oncocin-type binding) or inhibiting the assembly of the 50S ribosomal subunit (apidaecin-type binding). The in vivo efficacy and favorable biodistribution of oncocins confirmed the therapeutic potential of short PrAMPs for the first time, wh ... || Antimicrobial peptides (AMPs) are considered as promising alternatives to common antibiotics that threateningly lose their therapeutic potentials against multidrug-resistant pathogens (Fox, [2013]; Wang et al., [2015]). In contrast to approved therapeutic peptide hormones, antimicrobial peptides have to be administered at much higher doses, which may amplify general drawbacks of peptide therapeutics. […]

The nature of data set [8]: fresh peritoneal lavage (PBS injected intraperitoneal), ex vivo. The following applies: CD-1 mice, 37°C, up to 60 min.
Data set [9] is described as follows: Lithium-heparin plasma after intraperitoneal administration. Conditions: NMRI mice, up to 90 min.
Data set [10] is described as follows: liver homogenates after intraperitoneal administration. The following applies: NMRI mice, up to 90 min.
Data set [11] can be described thus: mouse serum in vitro. The following applies: cited from earlier work.
Data set [12] is described as follows: plasma after intravenous administration. The following applies: CD-1 mice, up to 60 min.
The mark [13] stands for this setting: metabolites, in vitro, no method in this paper, reference not given.
Where [14] appears, read: E. coli ATCC 25922, ref Knappe et al., 2016c.

Broadly, the MIC is the lowest concentration found to suppress growth. By Kd is commonly meant the free concentration of one partner at which half of the binding sites on the other are occupied at equilibrium, for simple one-to-one binding. As usually defined, the share remaining is what is left of the initial amount, in per cent.

In brackets after ≈: the same amount, converted by molar mass. Entries after “also recorded” stand apart in the source; their conditions may differ. Read-outs that look alike come from different tables or passages of the source. Where a SMILES comes first, the peptide text is derived from it. [ ]: non-standard residue; d: D form. The star is where a group is joined. Orn(α-tetramethylguanidino) = CN(C)C(=N[C@@H](CCCN)C(=O)*)N(C)C; Orn = NCCC[C@H](N)C(=O)O

With `CC[C@H](C)[C@H](NC(=O)[C@H](Cc1ccc(O)cc1)NC(=O)[C@@H](NC(=O)[C@@H]1CCCN1C(=O)[C@H](CCCNC(=N)N)NC(=O)[C@H](CC(N)=O)NC(=O)[C@H](CC(N)=O)NC(=O)[C@H](CCCN)N=C(N(C)C)N(C)C)C(C)C)C(=O)N1CCC[C@H]1C(=O)N[C@@H](CCCNC(=N)N)C(=O)N1CCC[C@H]1C(=O)N[C@@H](CCCNC(=N)N)C(=O)N1CCC[C@H]1C(=O)N1CCC[C@H]1C(=O)N[C@@H](Cc1c[nH]cn1)C(=O)N1CCC[C@H]1C(=O)O` [Api1-16] ({Orn(α-tetramethylguanidino)}-NNRPVYIPRPRPPHP-OH), in data set [1] (setting [13]), the minimum inhibitory concentration (MIC) was above 128 µg/mL.

Turning to `CC[C@H](C)[C@H](NC(=O)[C@H](Cc1ccc(O)cc1)NC(=O)[C@@H](NC(=O)[C@@H]1CCCN1C(=O)[C@H](CCCNC(=N)N)NC(=O)[C@H](CC(N)=O)NC(=O)[C@H](CC(N)=O)NC(=O)[C@H](CCCN)N=C(N(C)C)N(C)C)C(C)C)C(=O)N1CCC[C@H]1C(=O)N[C@@H](CCCNC(=N)N)C(=O)N1CCC[C@H]1C(=O)N[C@@H](CCCNC(=N)N)C(=O)N1CCC[C@H]1C(=O)N1CCC[C@H]1C(=O)N[C@@H](Cc1c[nH]cn1)C(=O)N1CCC[C@H]1C(=O)N[C@@H](CCCNC(=N)N)C(=O)O` [Api1-17] ({Orn(α-tetramethylguanidino)}-NNRPVYIPRPRPPHPR-OH), the minimum inhibitory concentration (MIC) in data set [1] (setting [13]) was 64 µg/mL.

For the compound `CC[C@H](C)[C@H](NC(=O)[C@H](CCCN)NC(=O)[C@H](CCCNC(=N)N)NC(=O)[C@@H]1CCCN1C(=O)[C@@H]1CCCN1C(=O)[C@H](CCCNC(=N)N)NC(=O)[C@@H]1CCCN1C(=O)[C@H](CCCNC(=N)N)NC(=O)[C@@H]1CCCN1C(=O)[C@H](CC(C)C)NC(=O)[C@H](Cc1ccc(O)cc1)NC(=O)[C@@H]1CCCN1C(=O)[C@@H]1CCCN1C(=O)[C@H](CCCCN)NC(=O)[C@H](CC(=O)O)NC(=O)[C@@H](N)C(C)C)C(=O)N[C@@H](Cc1ccc(O)cc1)C(=O)N[C@@H](CC(N)=O)C(=O)N[C@@H](CCCN)C(N)=O` [Onc72, reference compound] (H-VDKPPYLPRPRPPR[Orn]IYN[Orn]-NH2; N-terminus and C-terminus assumed), the maximum plasma levels relative to Api88 and Api137 was below 10 fold. Also, the Kd in data set [2] is 450 nM. Besides, in data set [3], the “Maximum plasma level reported for oncocins, compared with lower dose groups” value is 6 µg/mL and the “Plasma level reported for oncocin, compared with high dose groups” value was 18000 ng/mL. Besides, the fraction remaining at 1 h, 75 μg/mL in [4] is above 89%. Also, in data set [1] (setting [14]), the minimal inhibitory concentration (MIC) is 16 µg/mL (≈ 6.94 µM). Moreover, the “Recovery rate of injected peptide” value in data set [5] is 47%. In data set [6], the “Dose rescuing all animals” value is 5 mg/kg.

Turning to `CC[C@H](C)[C@H](NC(=O)[C@@H](CCCNC(=N)N)NC(=O)[C@H](CCCNC(=N)N)NC(=O)[C@@H]1CCCN1C(=O)[C@@H]1CCCN1C(=O)[C@H](CCCNC(=N)N)NC(=O)[C@@H]1CCCN1C(=O)[C@H](CCCNC(=N)N)NC(=O)[C@@H]1CCCN1C(=O)[C@H](CC(C)C)NC(=O)[C@H](Cc1ccc(O)cc1)NC(=O)[C@@H]1CCCN1C(=O)[C@@H]1CCCN1C(=O)[C@H](CCCCN)NC(=O)[C@H](CC(=O)O)NC(=O)[C@@H](N)C(C)C)C(=O)N[C@@H](Cc1ccc(O)cc1)C(=O)N[C@@H](CC(N)=O)C(=O)N[C@H](CCCNC(=N)N)C(N)=O` [Onc112, reference compound] (H-VDKPPYLPRPRPPR[dR]IYN[dR]-NH2; N-terminus and C-terminus assumed), the maximum plasma levels relative to Api88 and Api137 was below 10 fold. In addition, the Kd in [2] is 90 nM. In addition, in data set [7], the Serum half-life time entry is given as “exceeded 8 h”. Also, in data set [3], the “Maximum plasma level reported for oncocins, compared with lower dose groups” value is 8 µg/mL. In data set [4], this compound had a share remaining at 1 h, 75 μg/mL above 89%. Also, the MIC in data set [1] (setting [14]) is 4 µg/mL (≈ 1.67 µM). Further, the “Recovery rate of injected peptide” value in [5] is 32%. In data set [6], the “Dose rescuing all animals” value was 2.5 mg/kg.

gu-ONNRPVYIPRPRPPHPRL-NH2: the fragment found entry in [8] is given as “Api1-17, major, 30 min”; in data set [9] it was “Api1-16, major, 10 min; also recorded: Api2-16; also recorded: Api7-18; also recorded: Api3-18; also recorded: Api7-12; also recorded: Api1-6; also recorded: Api1-17, major, 10 min”; in [10], “Api1-17, major; also recorded: Api1-16, major”; in data set [11], “Api1-17, major; also recorded: Api1-16, major”; in [12] it was “Api1-17, major, 5 min; also recorded: Api1-16, major, 5 min”.

Turning to gu-ONNRPVYIPRPRPPHPRL-OH, the fragment found result in [8] is reported as “Api1-17, major, 30 min”; in [9] it was “Api1-17, major, 10 min; also recorded: Api1-16, major, 10 min; also recorded: Api7-12, minor; also recorded: Api2-16, minor; also recorded: Api2-18, minor”; in data set [10], “Api1-17, major; also recorded: Api1-16, major”; in [11], “Api1-17, major; also recorded: Api1-16, major”.
